The source made the active and inactive calls.
Assays:
[1] = HIV-1 Vif–A3G interaction blockers – biochemical, TR-FRET, GST-Vif 1-94, biotin-A3G peptide, dose response retest, primary screen (AID 1117319); type: functional;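 also: TR-FRET signal of purified GST-Vif binding a biotinylated A3G peptide; inhibitors lower the FRET signal by blocking Vif and A3G binding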
Protein skinhead-1 = molecular target: T1, Protein skinhead-1 (Caenorhabditis elegans, UniProt P34707); type: functional
T1 sequence (P34707 whole entry): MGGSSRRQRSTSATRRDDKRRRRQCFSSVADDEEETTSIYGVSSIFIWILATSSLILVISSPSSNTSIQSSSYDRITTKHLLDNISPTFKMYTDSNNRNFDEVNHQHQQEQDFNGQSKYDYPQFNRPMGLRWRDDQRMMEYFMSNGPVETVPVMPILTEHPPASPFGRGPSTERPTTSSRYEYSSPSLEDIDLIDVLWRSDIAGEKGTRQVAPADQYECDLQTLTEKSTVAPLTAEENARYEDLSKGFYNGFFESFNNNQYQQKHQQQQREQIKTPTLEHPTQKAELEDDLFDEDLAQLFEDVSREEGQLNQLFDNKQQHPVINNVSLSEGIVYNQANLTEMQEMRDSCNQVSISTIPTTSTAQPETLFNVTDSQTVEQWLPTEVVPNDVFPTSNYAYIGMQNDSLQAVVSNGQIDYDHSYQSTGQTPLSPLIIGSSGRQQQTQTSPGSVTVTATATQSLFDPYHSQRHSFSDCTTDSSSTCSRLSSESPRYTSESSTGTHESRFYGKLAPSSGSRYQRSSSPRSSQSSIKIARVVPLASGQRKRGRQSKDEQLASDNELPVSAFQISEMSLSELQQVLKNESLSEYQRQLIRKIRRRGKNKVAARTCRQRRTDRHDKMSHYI

[2] = molecular target: T2, Oxysterols receptor LXR-beta (Homo sapiens, UniProt P55055); type: functional, cell-based;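 also: agonist activity at LXR measured by a cell-based luminescence readout across a dose range, run as a counterscreen for daf-12 agonists; HEK293 cells with Gal4-LXR fusion and GAL4-driven luciferase reporter; potency for activation of Gal4-LXR reporter so compounds are agonists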
T2 sequence (P55055 whole entry): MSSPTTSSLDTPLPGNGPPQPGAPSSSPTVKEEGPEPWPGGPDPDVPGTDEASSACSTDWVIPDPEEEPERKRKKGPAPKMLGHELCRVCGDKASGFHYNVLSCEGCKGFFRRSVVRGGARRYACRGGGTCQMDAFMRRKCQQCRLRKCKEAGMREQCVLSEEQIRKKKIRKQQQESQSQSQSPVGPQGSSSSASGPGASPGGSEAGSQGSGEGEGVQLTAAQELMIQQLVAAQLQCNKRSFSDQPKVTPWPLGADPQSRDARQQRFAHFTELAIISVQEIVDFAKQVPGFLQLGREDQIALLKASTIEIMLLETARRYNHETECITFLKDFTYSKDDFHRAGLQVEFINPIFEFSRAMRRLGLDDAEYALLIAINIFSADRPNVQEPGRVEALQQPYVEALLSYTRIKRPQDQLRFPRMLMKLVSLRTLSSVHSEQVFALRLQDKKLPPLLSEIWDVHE

HEK293 = experiment: EBV LMP1 TES2 canonical NF-kB signalling blockers – cell-based, HEK293, luciferase, cherry-pick, dose response (AID 588343); type: functional; settings: Homo sapiens
[3] = molecular target: Peroxisome proliferator-activated receptor gamma/Nuclear receptor coactivator 2 (Homo sapiens, UniProt P37231); type: functional;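 also: agonist potency for raising coactivator recruitment to the receptor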
Chain of Peroxisome proliferator-activated receptor gamma/Nuclear receptor coactivator 2 (P37231 whole entry): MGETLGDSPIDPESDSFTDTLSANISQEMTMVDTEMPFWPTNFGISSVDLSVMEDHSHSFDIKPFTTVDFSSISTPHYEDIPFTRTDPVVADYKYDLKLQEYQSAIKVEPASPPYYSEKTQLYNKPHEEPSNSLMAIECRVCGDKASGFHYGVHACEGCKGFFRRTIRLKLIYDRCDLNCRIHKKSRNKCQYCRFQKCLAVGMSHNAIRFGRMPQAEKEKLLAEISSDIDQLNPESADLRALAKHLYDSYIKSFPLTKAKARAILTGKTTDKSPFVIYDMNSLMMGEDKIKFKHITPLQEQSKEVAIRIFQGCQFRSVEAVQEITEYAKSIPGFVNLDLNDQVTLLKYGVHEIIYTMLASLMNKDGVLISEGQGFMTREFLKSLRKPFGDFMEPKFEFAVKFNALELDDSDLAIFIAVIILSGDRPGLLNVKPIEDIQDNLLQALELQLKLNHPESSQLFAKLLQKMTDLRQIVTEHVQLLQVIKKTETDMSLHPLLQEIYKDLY
Chain of Peroxisome proliferator-activated receptor gamma/Nuclear receptor coactivator 2 (Q15596 whole entry, further chain): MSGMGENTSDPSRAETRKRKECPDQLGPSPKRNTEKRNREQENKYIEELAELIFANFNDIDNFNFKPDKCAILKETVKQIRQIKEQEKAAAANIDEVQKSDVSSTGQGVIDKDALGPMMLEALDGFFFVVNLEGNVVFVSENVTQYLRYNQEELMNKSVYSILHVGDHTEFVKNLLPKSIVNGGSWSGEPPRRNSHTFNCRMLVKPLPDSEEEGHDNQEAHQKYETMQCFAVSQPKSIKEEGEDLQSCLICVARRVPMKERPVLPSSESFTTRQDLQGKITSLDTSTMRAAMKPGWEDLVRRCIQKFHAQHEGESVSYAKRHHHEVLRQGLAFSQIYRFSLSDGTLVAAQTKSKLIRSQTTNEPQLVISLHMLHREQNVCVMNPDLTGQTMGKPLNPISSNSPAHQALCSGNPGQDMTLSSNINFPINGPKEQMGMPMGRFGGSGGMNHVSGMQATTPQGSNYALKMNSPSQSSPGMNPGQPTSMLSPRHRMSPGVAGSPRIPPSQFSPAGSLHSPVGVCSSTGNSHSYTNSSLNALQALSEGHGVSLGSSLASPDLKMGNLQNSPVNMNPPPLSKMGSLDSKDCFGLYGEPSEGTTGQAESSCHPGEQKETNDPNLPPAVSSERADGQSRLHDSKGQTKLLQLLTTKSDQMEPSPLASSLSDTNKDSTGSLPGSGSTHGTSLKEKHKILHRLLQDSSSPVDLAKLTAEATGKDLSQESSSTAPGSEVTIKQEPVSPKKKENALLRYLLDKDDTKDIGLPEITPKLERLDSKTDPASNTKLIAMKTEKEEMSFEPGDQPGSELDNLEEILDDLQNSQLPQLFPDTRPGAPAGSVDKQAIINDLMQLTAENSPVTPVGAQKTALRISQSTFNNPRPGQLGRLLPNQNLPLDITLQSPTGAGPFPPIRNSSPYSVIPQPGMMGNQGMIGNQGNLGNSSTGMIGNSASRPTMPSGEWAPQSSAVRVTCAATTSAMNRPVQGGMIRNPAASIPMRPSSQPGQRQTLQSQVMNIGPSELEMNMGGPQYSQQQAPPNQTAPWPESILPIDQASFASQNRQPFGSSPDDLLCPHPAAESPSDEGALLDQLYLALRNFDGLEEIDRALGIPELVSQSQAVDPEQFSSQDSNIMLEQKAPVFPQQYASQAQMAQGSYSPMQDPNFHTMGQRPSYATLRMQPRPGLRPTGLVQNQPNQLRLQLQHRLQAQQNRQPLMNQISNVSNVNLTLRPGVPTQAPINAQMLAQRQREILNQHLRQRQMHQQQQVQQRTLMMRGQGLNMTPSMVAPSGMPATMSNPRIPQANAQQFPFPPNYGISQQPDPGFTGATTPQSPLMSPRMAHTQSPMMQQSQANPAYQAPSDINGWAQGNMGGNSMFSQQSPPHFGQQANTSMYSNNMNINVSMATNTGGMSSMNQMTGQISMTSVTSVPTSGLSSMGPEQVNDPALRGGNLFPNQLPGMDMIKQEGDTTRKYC

[4] = molecular target: Peroxisome proliferator-activated receptor gamma/Nuclear receptor coactivator 1 (Homo sapiens, UniProt P37231); type: functional;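 also: agonist potency as compounds enhance coactivator SRC-1 recruitment to PPARgamma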
[5] = molecular target: Peroxisome proliferator-activated receptor gamma/Nuclear receptor coactivator 3 (Homo sapiens, UniProt P37231); type: functional;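 also: agonist potency for raising coactivator recruitment to the receptor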
Chain of Peroxisome proliferator-activated receptor gamma/Nuclear receptor coactivator 3 (P37231 whole entry): as the sequence (P37231 whole entry) above
Chain of Peroxisome proliferator-activated receptor gamma/Nuclear receptor coactivator 3 (Q9Y6Q9 whole entry, further chain): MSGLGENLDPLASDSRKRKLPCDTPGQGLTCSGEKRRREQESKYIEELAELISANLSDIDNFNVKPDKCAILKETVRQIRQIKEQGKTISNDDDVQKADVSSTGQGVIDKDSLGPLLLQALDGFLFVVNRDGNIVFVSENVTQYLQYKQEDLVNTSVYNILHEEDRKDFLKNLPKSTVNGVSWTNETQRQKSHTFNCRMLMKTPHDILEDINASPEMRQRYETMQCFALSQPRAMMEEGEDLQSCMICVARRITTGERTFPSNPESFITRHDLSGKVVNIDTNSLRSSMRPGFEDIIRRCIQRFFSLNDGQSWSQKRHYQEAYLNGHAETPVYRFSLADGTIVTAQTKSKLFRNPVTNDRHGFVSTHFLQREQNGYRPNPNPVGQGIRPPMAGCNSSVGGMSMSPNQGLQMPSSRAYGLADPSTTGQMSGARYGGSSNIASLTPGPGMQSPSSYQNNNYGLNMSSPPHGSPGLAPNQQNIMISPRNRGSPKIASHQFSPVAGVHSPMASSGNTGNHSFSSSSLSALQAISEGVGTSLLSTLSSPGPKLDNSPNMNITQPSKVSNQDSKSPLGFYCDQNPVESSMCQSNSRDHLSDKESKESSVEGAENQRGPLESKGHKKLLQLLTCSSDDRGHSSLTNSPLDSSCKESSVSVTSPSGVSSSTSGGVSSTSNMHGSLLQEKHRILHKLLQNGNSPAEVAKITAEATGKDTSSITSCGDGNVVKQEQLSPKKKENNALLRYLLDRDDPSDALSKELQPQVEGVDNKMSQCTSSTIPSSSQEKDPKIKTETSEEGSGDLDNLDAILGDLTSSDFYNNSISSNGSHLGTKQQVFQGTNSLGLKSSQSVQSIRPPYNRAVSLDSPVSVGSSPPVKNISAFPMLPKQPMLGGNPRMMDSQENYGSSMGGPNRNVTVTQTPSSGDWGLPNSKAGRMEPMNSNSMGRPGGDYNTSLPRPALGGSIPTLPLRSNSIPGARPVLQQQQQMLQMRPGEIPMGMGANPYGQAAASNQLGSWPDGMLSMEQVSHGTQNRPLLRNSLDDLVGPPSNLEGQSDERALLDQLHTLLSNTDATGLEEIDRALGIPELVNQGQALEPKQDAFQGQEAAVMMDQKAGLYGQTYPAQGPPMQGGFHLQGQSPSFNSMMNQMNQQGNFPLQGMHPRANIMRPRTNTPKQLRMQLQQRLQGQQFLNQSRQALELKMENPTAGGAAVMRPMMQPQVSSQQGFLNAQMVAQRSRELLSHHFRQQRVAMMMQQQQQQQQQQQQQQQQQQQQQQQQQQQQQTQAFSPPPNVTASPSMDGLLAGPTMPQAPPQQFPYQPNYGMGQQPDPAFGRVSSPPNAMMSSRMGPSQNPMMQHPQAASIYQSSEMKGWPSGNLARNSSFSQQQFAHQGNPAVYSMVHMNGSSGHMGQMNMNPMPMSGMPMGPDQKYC

[6] = viability loss in THP-1 monocytes – THP-1 cells, cytotoxicity control for Vif-APOBEC3G degradation inhibitor project, dose response (AID 1117359); type: functional; settings: THP-1
[7] = molecular target: Luciferin 4-monooxygenase (Photinus pyralis, UniProt P08659); experiment: Counter Screen for Luciferase-based Assay Positives. [Related pubchem assays: 620, 618, 411 ]
Chain of Luciferin 4-monooxygenase (P08659 whole entry): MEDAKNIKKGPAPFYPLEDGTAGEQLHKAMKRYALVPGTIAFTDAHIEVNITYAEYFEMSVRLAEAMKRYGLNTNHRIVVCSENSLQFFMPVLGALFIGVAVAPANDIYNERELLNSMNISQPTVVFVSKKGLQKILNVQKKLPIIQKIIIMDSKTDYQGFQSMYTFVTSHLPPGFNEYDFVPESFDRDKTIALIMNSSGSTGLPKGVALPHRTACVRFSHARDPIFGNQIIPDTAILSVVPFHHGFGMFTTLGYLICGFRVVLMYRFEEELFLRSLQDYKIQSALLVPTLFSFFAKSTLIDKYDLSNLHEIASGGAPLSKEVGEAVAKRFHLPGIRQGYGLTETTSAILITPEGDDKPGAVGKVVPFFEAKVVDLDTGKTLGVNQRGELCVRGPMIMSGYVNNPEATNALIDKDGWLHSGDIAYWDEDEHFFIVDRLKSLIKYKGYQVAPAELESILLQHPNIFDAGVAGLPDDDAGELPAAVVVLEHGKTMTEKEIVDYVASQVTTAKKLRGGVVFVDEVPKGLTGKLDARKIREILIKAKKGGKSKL

HT-1080 = experiment: HT1080 cell viability loss – fluorescence readout (AID 620); type: functional, cell-based; settings: Homo sapiens
Vero = experiment: cells; type: functional; settings: Chlorocebus sabaeus
[8] = molecular target: T3, COUP transcription factor 2 (Homo sapiens, UniProt P24468); experiment: Luminescence-based cell-based high throughput dose response assay to identify inhibitors of COUP-TFII (NR2F2).; type: functional;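 also: HEK293 cells transiently cotransfected with COUP-TFII expression vector and reporter; luciferase reporter luminescence driven by COUP-TFII from the pX2-168 reporter plasmid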
T3 sequence (P24468 whole entry): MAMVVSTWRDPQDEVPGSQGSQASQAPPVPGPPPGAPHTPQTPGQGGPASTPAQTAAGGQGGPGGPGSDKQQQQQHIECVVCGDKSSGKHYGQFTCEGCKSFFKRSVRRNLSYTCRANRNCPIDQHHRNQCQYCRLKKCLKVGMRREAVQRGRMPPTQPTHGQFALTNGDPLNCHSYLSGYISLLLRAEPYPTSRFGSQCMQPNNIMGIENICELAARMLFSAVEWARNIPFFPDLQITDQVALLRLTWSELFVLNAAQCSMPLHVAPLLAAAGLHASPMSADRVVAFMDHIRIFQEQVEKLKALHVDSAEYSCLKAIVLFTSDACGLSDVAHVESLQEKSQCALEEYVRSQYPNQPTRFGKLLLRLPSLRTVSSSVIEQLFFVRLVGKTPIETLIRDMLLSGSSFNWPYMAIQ

Paired box protein Pax-8 = Paired box protein Pax-8 (Homo sapiens, UniProt Q06710); experiment: PAX8 transcriptional activity inhibition in RMG-I – RMG-I cells, luciferase, cherry-pick, dose response (AID 687027); type: functional, cell-based;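 also: luciferase reporter driven by Pax8 target thyroperoxidase promoter measured by SteadyGlo luminescence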
Chain of Paired box protein Pax-8 (Q06710 whole entry): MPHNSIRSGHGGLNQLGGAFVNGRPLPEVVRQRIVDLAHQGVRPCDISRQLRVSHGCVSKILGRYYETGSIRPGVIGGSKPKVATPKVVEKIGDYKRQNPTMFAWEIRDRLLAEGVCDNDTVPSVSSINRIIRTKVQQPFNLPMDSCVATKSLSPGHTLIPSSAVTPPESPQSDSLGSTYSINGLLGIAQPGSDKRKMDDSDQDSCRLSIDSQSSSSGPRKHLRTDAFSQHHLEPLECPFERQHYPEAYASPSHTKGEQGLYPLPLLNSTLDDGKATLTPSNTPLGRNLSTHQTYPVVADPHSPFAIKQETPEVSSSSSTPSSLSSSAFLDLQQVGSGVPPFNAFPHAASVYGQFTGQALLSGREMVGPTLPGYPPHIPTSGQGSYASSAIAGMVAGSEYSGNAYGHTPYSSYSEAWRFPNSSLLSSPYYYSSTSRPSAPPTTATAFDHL

[9] = OVCAR8 cell viability loss – plate reader, dry powder samples, PAX8 project, dose response (AID 743197); type: functional, cell-based; settings: OVCAR-8
[10] = molecular target: T4, Replicative DNA helicase DnaB (Mycobacterium tuberculosis, UniProt P9WMR3); experiment: DnaB intein splicing inhibitors, dose response, biochemical, cell-free fluorescence (AID 449749); type: functional
T4 sequence (P9WMR3 whole entry): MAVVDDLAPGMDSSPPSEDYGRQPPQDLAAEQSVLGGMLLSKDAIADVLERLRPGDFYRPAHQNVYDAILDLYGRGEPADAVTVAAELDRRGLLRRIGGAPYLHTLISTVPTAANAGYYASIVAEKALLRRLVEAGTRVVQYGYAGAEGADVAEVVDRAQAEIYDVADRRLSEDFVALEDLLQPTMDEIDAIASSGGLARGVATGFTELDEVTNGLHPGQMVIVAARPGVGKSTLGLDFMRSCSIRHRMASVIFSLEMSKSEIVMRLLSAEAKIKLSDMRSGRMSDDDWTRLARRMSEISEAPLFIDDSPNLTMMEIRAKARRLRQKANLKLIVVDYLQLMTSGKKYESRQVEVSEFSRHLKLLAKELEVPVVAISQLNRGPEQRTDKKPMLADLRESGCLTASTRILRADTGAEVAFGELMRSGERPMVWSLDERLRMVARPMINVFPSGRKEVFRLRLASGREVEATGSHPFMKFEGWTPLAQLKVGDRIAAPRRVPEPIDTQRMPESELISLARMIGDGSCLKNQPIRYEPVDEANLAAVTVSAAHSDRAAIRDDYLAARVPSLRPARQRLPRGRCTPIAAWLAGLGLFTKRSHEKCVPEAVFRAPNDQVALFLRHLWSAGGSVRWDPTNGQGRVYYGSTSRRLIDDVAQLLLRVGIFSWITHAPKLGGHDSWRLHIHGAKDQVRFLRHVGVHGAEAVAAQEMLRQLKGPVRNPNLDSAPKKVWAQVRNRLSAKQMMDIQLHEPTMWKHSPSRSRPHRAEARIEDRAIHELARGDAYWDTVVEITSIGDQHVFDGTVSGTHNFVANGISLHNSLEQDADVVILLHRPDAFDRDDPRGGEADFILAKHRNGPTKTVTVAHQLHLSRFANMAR

Protein RecA = molecular target: T5, Protein RecA (Mycobacterium tuberculosis, UniProt P9WHJ3); experiment: Fluorescence Cell-Free Homogeneous Dose Retest to Identify Inhibitors of RecA-Intein Splicing Activity. [Related pubchem assays (depositor defined):AID2097, AID2223, AID489010, AID492950]; type: functional
T5 sequence (P9WHJ3 whole entry): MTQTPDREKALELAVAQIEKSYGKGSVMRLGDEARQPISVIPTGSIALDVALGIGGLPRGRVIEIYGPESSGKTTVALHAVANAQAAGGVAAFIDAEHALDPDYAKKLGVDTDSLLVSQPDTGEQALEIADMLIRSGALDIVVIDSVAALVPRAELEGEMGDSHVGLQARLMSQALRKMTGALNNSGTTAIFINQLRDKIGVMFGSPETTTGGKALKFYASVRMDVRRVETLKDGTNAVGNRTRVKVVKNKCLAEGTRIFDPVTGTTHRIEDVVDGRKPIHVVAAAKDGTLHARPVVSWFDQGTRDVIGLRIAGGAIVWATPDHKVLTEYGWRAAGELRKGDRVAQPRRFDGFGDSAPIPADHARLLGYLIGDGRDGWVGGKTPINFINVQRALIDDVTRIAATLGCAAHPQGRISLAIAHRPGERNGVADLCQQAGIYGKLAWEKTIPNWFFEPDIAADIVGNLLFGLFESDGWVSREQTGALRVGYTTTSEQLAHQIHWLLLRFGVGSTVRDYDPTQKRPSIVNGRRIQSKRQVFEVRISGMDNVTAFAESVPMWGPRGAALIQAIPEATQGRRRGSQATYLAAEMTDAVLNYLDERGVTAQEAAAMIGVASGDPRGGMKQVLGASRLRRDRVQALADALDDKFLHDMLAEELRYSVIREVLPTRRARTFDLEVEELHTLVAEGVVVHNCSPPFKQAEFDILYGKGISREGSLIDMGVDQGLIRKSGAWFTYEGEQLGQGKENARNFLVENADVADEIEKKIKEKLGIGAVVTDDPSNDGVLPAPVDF

[11] = molecular target: T6, Tyrosyl-DNA phosphodiesterase 2 (Homo sapiens, UniProt O95551); experiment: potency against TDP2 phosphodiesterase activity – biochemical, epi absorbance, IC50, dose response (AID 743297)
T6 sequence (O95551 whole entry): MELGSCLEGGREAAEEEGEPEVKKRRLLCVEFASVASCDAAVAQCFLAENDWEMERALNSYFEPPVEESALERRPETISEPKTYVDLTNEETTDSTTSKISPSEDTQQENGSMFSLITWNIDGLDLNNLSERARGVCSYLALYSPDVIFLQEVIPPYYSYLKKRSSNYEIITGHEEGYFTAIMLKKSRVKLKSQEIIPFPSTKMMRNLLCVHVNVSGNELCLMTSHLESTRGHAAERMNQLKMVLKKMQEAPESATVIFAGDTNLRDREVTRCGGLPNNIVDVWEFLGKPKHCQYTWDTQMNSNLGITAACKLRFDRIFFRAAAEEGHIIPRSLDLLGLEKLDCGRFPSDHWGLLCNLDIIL

[12] = P. falciparum Dd2 growth inhibitors, dose response, SYBR Green, cherry-picked samples (AID 1159567); type: functional, cell-based

Compound: COc1ccccc1C(=O)Nc1ccc(-c2nnc(SCC(=O)O)n2C)cc1
- IC50 [1]: > 100 µM (active)

Compound: FC(F)(F)c1cc(Cl)c2nc(-c3ccccc3)cn2c1
- IC50 (Protein skinhead-1): > 100 µM (inactive)
- EC50 [2]: > 67.5 µM (inactive)

Compound: CCc1cc(C(=O)Nc2ncccc2O)sc1C
- AC50 (HEK293): 4.64 µM (active)
- EC50 [2]: > 67.5 µM (inactive)

Compound: O=C1OCCC1Sc1nnc(-c2ccc(Br)cc2)o1 (centres undefined)
- EC50 [3]: 75.3 µM (not active)
- EC50 [4]: > 79.4 µM (not active)
- EC50 [5]: > 79.4 µM (not active)

Compound: Cc1c(C=O)c2ccccc2n1Cc1ccc(F)cc1
- CC50 [6]: > 40 µM (active)

Compound: CC(=O)Nc1ccc2oc(-c3cc(F)c(F)cc3Cl)nc2c1
- EC50 [7]: 16.2 µM (active)
- EC50 (HT-1080): > 50 µM (not active)

Compound: O=C(c1ccccc1)c1cnc(-c2ccc(Cl)cc2)s1
- EC50 [3]: 11.9 µM (not active)
- EC50 [4]: 14.4 µM (not active)
- EC50 [5]: 21.4 µM (not active)

Compound: CCn1c(SCC(=O)Nc2ccccc2C)nnc1-c1ccccc1O
- EC50 [7]: > 100 µM (not active)
- EC50 (HT-1080): > 50 µM (not active)

Compound: COc1ccc(F)cc1S(=O)(=O)Nc1cc2c3c(c1)CC(=O)N3CCC2
- CC50 [6]: > 40 µM (active)

Compound: Cc1n[nH]c(C(F)(F)F)c1N=NN1CCOCC1
- CC50 (Vero): 6.78 µM (active)
- IC50 [8]: 15.5 µM (inactive)

Compound: CCS(=O)(=O)N1CCC(C(=O)NCc2ccccn2)CC1
- IC50 [1]: > 100 µM (active)

Compound: CC(C)CNc1ncnc2c1ncn2[C@H]1CN(Cc2ccc(-c3ccccc3)cc2)C[C@@H](CO)O1
- IC50 [8]: 9.84 µM (active)

Compound: COc1ccccc1NC(=O)COC(=O)c1c(NC(C)=O)sc(C)c1C
- CC50 [6]: > 40 µM (active)

Compound: COc1ccc(CN(C)C[C@@H]2OCCCC[C@H](C)Oc3ccc(NC(=O)Nc4cccc5ccccc45)cc3C(=O)N([C@H](C)CO)C[C@H]2C)cc1
- AC50 (Paired box protein Pax-8): 69.6 µM (active)
- AC50 [9]: > 70 µM (inactive)

Compound: COc1ccccc1/C=N\N=C(\N)c1ccccn1
- EC50 [2]: > 67.6 µM (inactive)

Compound: Oc1ccc(/N=C/c2sc3ccccc3c2Cl)cc1
- AC50 [10]: 137 µM (active)
- EC50 (Protein RecA): > 380 µM (inactive)
- IC50 [11]: > 128 µM (inactive)

Compound: COc1ccc(C#Cc2ccc([C@H]3[C@@H](CO)N4CCCCN(C(=O)Nc5ccccc5F)C[C@@H]34)cc2)cc1
- AC50 [12]: 5.66 µM (active)
